# In paper PMC9401498 (Clinical Cancer Research, 2021):
# “Also recorded” adds a separate entry of the source.
# Tested on: patients with advanced and/or treatment-refractory solid tumors
# Test: Safety and tolerability: adverse events
# Type: in vivo, human
# Conditions: for Alanine aminotransferase increased (treatment-related AE) / Ammonia increased (treatment-related AE) / Anemia (treatment-related AE) / Aspartate aminotransferase increased (treatment-related AE) / Blood alkaline phosphatase increased (treatment-related AE) / Blood bilirubin increased (treatment-related AE) / Blood creatinine increased (treatment-related AE) / Constipation (treatment-related AE) / Decreased appetite (treatment-related AE) / Diarrhea (treatment-related AE) / Dysgeusia (treatment-related AE) / Dyspepsia (treatment-related AE) / Fatigue (treatment-related AE) / Gastroesophageal reflux disease (treatment-related AE) / Hypomagnesemia (treatment-related AE) / Hyponatremia (treatment-related AE) / Nausea (treatment-related AE) / Neuropathy peripheral (treatment-related AE) / Patients with ≥1 treatment-emergent AE / Patients with ≥1 treatment-related AE / Photophobia (treatment-related AE) / Photopsia (treatment-related AE) / Thrombocytopenia (treatment-related AE) / Vision blurred (treatment-related AE) / Vomiting (treatment-related AE) / Weight decreased (treatment-related AE) / γ-Glutamyltransferase increased (treatment-related AE) / Abdominal distension (treatment-related AE) / Activated partial thromboplastin time prolonged (treatment-related AE): TID-fasted (n = 32)
# [1] = across doses and schedules, 120 patients
compound,measurement,setting,value
"O=C(Cc1cccc(OC(F)(F)F)c1)Nc1ccc(CCCCc2nnc(NC(=O)Cc3ccccn3)s2)nn1 [telaglenastat, Telaglenastat]",Alanine aminotransferase increased (treatment-related AE),All grades,6 (18.8) n (%)
same,Ammonia increased (treatment-related AE),All grades,0 n (%)
same,Anemia (treatment-related AE),All grades,0 n (%)
same,Aspartate aminotransferase increased (treatment-related AE),All grades,6 (18.8) n (%)
same,Blood alkaline phosphatase increased (treatment-related AE),All grades,2 (6.3) n (%)
same,Blood bilirubin increased (treatment-related AE),All grades,0 n (%)
same,Blood creatinine increased (treatment-related AE),All grades,1 (3.1) n (%)
same,Constipation (treatment-related AE),All grades,2 (6.3) n (%)
same,Decreased appetite (treatment-related AE),All grades,0 n (%)
same,Diarrhea (treatment-related AE),All grades,1 (3.1) n (%)
same,Dysgeusia (treatment-related AE),All grades,1 (3.1) n (%)
same,Dyspepsia (treatment-related AE),All grades,0 n (%)
same,Fatigue (treatment-related AE),All grades,7 (21.9) n (%)
same,Gastroesophageal reflux disease (treatment-related AE),All grades,0 n (%)
same,Hypomagnesemia (treatment-related AE),All grades,0 n (%)
same,Hyponatremia (treatment-related AE),All grades,0 n (%)
same,Nausea (treatment-related AE),All grades,2 (6.3) n (%)
same,Neuropathy peripheral (treatment-related AE),All grades,1 (3.1) n (%)
same,Patients with ≥1 treatment-emergent AE,All grades,30 (93.8) n (%)
same,Patients with ≥1 treatment-related AE,All grades,23 (71.9) n (%)
same,Photophobia (treatment-related AE),All grades,1 (3.1) n (%)
same,Photopsia (treatment-related AE),All grades,1 (3.1) n (%)
same,Thrombocytopenia (treatment-related AE),All grades,0 n (%)
same,Vision blurred (treatment-related AE),All grades,0 n (%)
same,Vomiting (treatment-related AE),All grades,4 (12.5) n (%)
same,Weight decreased (treatment-related AE),All grades,0 n (%)
same,γ-Glutamyltransferase increased (treatment-related AE),All grades,1 (3.1) n (%)
same,Abdominal distension (treatment-related AE),Grade 3,0 n (%)
same,Activated partial thromboplastin time prolonged (treatment-related AE),Grade 3,0 n (%)
same,Alanine aminotransferase increased (treatment-related AE),Grade 3,5 (15.6) n (%)
same,Ammonia increased (treatment-related AE),Grade 3,0 n (%)
same,Anemia (treatment-related AE),Grade 3,0 n (%)
same,Aspartate aminotransferase increased (treatment-related AE),Grade 3,3 (9.4) n (%)
same,Blood alkaline phosphatase increased (treatment-related AE),Grade 3,1 (3.1) n (%)
same,Blood bilirubin increased (treatment-related AE),Grade 3,0 n (%)
same,Blood creatinine increased (treatment-related AE),Grade 3,1 (3.1) n (%)
same,Constipation (treatment-related AE),Grade 3,0 n (%)
same,Decreased appetite (treatment-related AE),Grade 3,0 n (%)
same,Diarrhea (treatment-related AE),Grade 3,0 n (%)
same,Dysgeusia (treatment-related AE),Grade 3,0 n (%)
same,Dyspepsia (treatment-related AE),Grade 3,0 n (%)
same,Fatigue (treatment-related AE),Grade 3,0 n (%)
same,Gastroesophageal reflux disease (treatment-related AE),Grade 3,0 n (%)
same,Hypomagnesemia (treatment-related AE),Grade 3,0 n (%)
same,Hyponatremia (treatment-related AE),Grade 3,0 n (%)
same,Nausea (treatment-related AE),Grade 3,0 n (%)
same,Neuropathy peripheral (treatment-related AE),Grade 3,0 n (%)
same,Patients with ≥1 treatment-emergent AE,Grade 3,9 (28.1) n (%)
same,Patients with ≥1 treatment-related AE,Grade 3,4 (12.5) n (%)
same,Photophobia (treatment-related AE),Grade 3,0 n (%)
same,Photopsia (treatment-related AE),Grade 3,0 n (%)
same,Thrombocytopenia (treatment-related AE),Grade 3,0 n (%)
same,Vision blurred (treatment-related AE),Grade 3,0 n (%)
same,Vomiting (treatment-related AE),Grade 3,0 n (%)
same,Weight decreased (treatment-related AE),Grade 3,0 n (%)
same,γ-Glutamyltransferase increased (treatment-related AE),Grade 3,0 n (%)
same,Abdominal distension (treatment-related AE),Grade 4,0 n (%)
same,Activated partial thromboplastin time prolonged (treatment-related AE),Grade 4,0 n (%)
same,Alanine aminotransferase increased (treatment-related AE),Grade 4,0 n (%)
same,Ammonia increased (treatment-related AE),Grade 4,0 n (%)
same,Anemia (treatment-related AE),Grade 4,0 n (%)
same,Aspartate aminotransferase increased (treatment-related AE),Grade 4,2 (6.3) n (%)
same,Blood alkaline phosphatase increased (treatment-related AE),Grade 4,0 n (%)
same,Blood bilirubin increased (treatment-related AE),Grade 4,0 n (%)
same,Blood creatinine increased (treatment-related AE),Grade 4,0 n (%)
same,Constipation (treatment-related AE),Grade 4,0 n (%)
same,Decreased appetite (treatment-related AE),Grade 4,0 n (%)
same,Diarrhea (treatment-related AE),Grade 4,0 n (%)
same,Dysgeusia (treatment-related AE),Grade 4,0 n (%)
same,Dyspepsia (treatment-related AE),Grade 4,0 n (%)
same,Fatigue (treatment-related AE),Grade 4,0 n (%)
same,Gastroesophageal reflux disease (treatment-related AE),Grade 4,0 n (%)
same,Hypomagnesemia (treatment-related AE),Grade 4,0 n (%)
same,Hyponatremia (treatment-related AE),Grade 4,0 n (%)
same,Nausea (treatment-related AE),Grade 4,0 n (%)
same,Neuropathy peripheral (treatment-related AE),Grade 4,0 n (%)
same,Patients with ≥1 treatment-emergent AE,Grade 4,3 (9.4) n (%)
same,Patients with ≥1 treatment-related AE,Grade 4,3 (9.4) n (%)
same,Photophobia (treatment-related AE),Grade 4,0 n (%)
same,Photopsia (treatment-related AE),Grade 4,0 n (%)
same,Thrombocytopenia (treatment-related AE),Grade 4,0 n (%)
same,Vision blurred (treatment-related AE),Grade 4,0 n (%)
same,Vomiting (treatment-related AE),Grade 4,0 n (%)
same,Weight decreased (treatment-related AE),Grade 4,0 n (%)
same,γ-Glutamyltransferase increased (treatment-related AE),Grade 4,1 (3.1) n (%)
same,Incidence of treatment-related grade 3/4 AEs,"TID-fasted, 7/32",22%
same,Patients with treatment-related AEs of any grade,"across doses and schedules, 87/120 patients",72.5%
same,"ALT increased, treatment-related AE of any grade",[1],17%
same,"AST increased, treatment-related AE of any grade",[1],13%
same,"Fatigue, treatment-related AE of any grade",[1],23%
same,"Nausea, treatment-related AE of any grade",[1],19%
same,"Photophobia, treatment-related AE of any grade",[1],11%
same,Patients who died during the study-reporting period,all due to progressive disease (PD),Seven
same,DLTs,"dose escalation, BID-fed schedule",No DLTs
same,Hy's Law criteria (drug-induced liver injury),either schedule,no patients on either schedule met criteria for the Hy's Law; also recorded: no cases of drug-induced liver injury according to the Hy's law criteria
same,Patients with treatment-related SAEs,"four SAEs: ALT and AST increase (400 mg TID), blood creatinine increase (250 mg TID), grade 2 convulsion (1,000 mg BID)",3 patients
